Key:
[1] = system: sedge, umbrella; experiment: Test F flood (paddy) test; type: in vivo, Cyperus difformis; details: 21 d, scale 0-100
Excerpt: (§1) Three plastic pots (ca. 16-cm diameter) per rate were partially filled with sterilized Tama silt loam soil comprising a 35:50:15 ratio of sand, silt and clay and 2.6% organic matter. Separate plantings for each of the three pots were as follows. Seeds from the U.S. of monochoria (Monochoria vaginalis), sedge, umbrella (small-flower umbrella sedge, Cyperus difformis), bulrush, […] bulrush, Scirpus juncoides), and […] (purple […] coccinea), were planted into one 16-cm pot for each rate. Seeds from the U.S. of flatsedge, rice (rice flatsedge, Cyperus iria), sprangletop, Brdd. (bearded sprangletop, Leptochloa fascicularis), one stand of 9 or 10 water seeded rice seedlings (Rice, W.S. Jap, Oryza sativa cv. 'Japonica-[…]' or Rice, W.S. Ind, 'Indica'), and two stands of 3 or 4 seedlings of rice, transplanted (transplanted rice, Oryza sativa cv. 'Japonica-[…]') were planted into one 16-cm pot for each rate. Seeds from the U.S. of barnyardgrass (Echinochloa crus-galli), […] (common […], Alisma plantago-aquatica), and watergrass, late (late watergrass, Echinochloa oryzicola) were planted into one 16-cm pot for each rate. Plantings were sequential so that crop and weed species were at the 2.0 to 2.5-leaf stage at time of treatment. Potted plants were grown in a greenhouse with day/night temperature settings of 30/27° C., and supplemental balanced lighting was provided to maintain a 16-h photoperiod. Test pots were maintained in the greenhouse until test completion. At time of treatment, test pots were flooded to 3 cm above the soil surface, treated by application of test compounds directly to the paddy water, and then maintained at that water depth for the duration of the test. Effects of treatments on rice and weeds were visually evaluated by comparison to untreated controls after 21 d. Plant response ratings, summarized in Table F, are based on a scale of 0 to 100 where 0 is no effect and 100 is complete control. A dash (-) response means no test result.

[2] = system: bulrush, hardstem; experiment: Test F flood (paddy) test; type: in vivo, Scirpus juncoides; details: 21 d, scale 0-100
Excerpt: as §1

[3] = system: redstem; experiment: Test F flood (paddy) test; type: in vivo, Ammannia coccinea; details: 21 d, scale 0-100
Excerpt: as §1

[4] = system: smartweed; experiment: Test E preemergence herbicide test; type: in vivo, Polygonum Persicaria
Excerpt: Seeds of plant species selected from corn (Zea mays), soybean (Glycine max), velvetleaf (Abutilon theophrasti), lambsquarters (Chenopodium album), wild poinsettia (Euphorbia heterophylla), pigweed, palmer (palmer pigweed, Amaranthus palmeri), waterhemp (common waterhemp, Amaranthus rudis), surinam grass (Brachiaria decumbens), crabgrass, large (large crabgrass, Digitaria sanguinalis), crabgrass, Brazil (Brazilian crabgrass, Digitaria horizontalis), panicum, fall (fall panicum, Panicum dichotomiflorum), foxtail, giant (giant foxtail, Setaria faberii), foxtail, green (green foxtail, Setaria viridis), goosegrass (Eleusine indica), johnsongrass (Sorghum halepense), ragweed (common ragweed, Ambrosia elatior), barnyardgrass (Echinochloa crus-galli), sandbur (southern sandbur, Cenchrus echinatus), arrowleaf […] rhombifolia), ryegrass, Italian (Italian ryegrass, Lolium multiflorum), dayflower, VA (Virginia dayflower, Commelina virginica), field bindweed (Convolvulus arvensis), morningglory (Ipomoea coccinea), nightshade (eastern black nightshade, Solanum ptycanthum), kochia (Kochia scoparia), nutsedge, yellow (yellow nutsedge, Cyperus esculentus), cocklebur (common cocklebur, Xanthium strumarium), smartweed (ladysthumb smartweed, Polygonum Persicaria) and beggarticks (hairy beggarticks, Bidens pilosa), were planted into a silt loam soil and treated preemergence with test chemicals formulated in a non-phytotoxic solvent mixture which included a surfactant. Treated plants and controls were maintained in a greenhouse for 21 days, after which time all species were compared to controls and visually evaluated. Plant response ratings, summarized in Table E, are based on a scale of 0 to 100 where 0 is no effect and 100 is complete control. A dash (-) response means no test result.

[5] = system: deadnettle; experiment: Test C postemergence herbicide test; type: in vivo, Lamium amplexicaule
Excerpt: At the same time, plants selected from these crop and weed species and also barley (winter barley, Hordeum vulgare), […]), chickweed (common chickweed, Stellaria media), deadnettle (henbit deadnettle, Lamium amplexicaule), and canarygrass (littleseed canarygrass, Phalaris minor) were planted in pots containing Redi-Earth® planting medium (Scotts Company, 14111 Scottslawn Road, Marysville, Ohio 43041) comprising spaghnum peat moss, vermiculite, wetting agent and starter nutrients and treated with postemergence applications of test chemicals formulated in the same manner. Plants ranged in height from 2 to 18 cm (1- to 4-leaf stage) for postemergence treatments. Treated plants and controls were maintained in a greenhouse for 13 to 15 days, after which time all species were compared to controls and visually evaluated. Plant response ratings, summarized in Table C, are based on a scale of 0 to 100 where 0 is no effect and 100 is complete control. A dash (-) response means no test result.

Compound	Plant response rating, Sedge, Umbrella ([1]; 125 g ai/ha)	Plant response rating, Sedge, Umbrella ([1]; 250 g ai/ha)	Plant response rating, Sedge, Umbrella ([1]; 500 g ai/ha)	Plant response rating, Bulrush, Hardstem ([2]; 125 g ai/ha)	Plant response rating, Bulrush, Hardstem ([2]; 250 g ai/ha)	Plant response rating, Bulrush, Hardstem ([2]; 500 g ai/ha)	Plant response rating, Redstem ([3]; 125 g ai/ha)	Plant response rating, Redstem ([3]; 250 g ai/ha)	Plant response rating, Redstem ([3]; 500 g ai/ha)	Plant response rating, Sedge, Umbrella ([1]; 1000 g ai/ha)	Plant response rating, Sedge, Umbrella ([1]; 2000 g ai/ha)	Plant response rating, Redstem ([3]; 1000 g ai/ha)	Plant response rating, Redstem ([3]; 2000 g ai/ha)	also measured
CN1CC(c2ccc(F)c(F)c2)C(C(=O)Nc2cccc(F)c2F)C1=O (stereo not shown) [Compound 303]	0	0	0	0	70	80	0	0	30	–	–	–	–	Plant response rating, Sedge, Umbrella ([1]; 62 g ai/ha): 0; Plant response rating, Bulrush, Hardstem ([2]; 62 g ai/ha): 0; Plant response rating, Redstem ([3]; 62 g ai/ha): 0
O=C1NCC(c2ccc(Cl)c(Cl)c2)C1C(=O)Nc1ccccc1F (racemic) [Compound 14]	–	–	–	–	–	–	–	–	–	–	–	–	–	Plant response rating, Smartweed ([4]; 125 g ai/ha): 0
O=C1NCC(c2ccc(C(F)(F)F)cc2)C1C(=O)Nc1cccc(F)c1F (stereo not shown) [Compound 80, N-(2,3-difluorophenyl)-2-oxo-4-[4-(trifluoromethyl)phenyl]-3-pyrrolidinecarboxamide]	–	–	–	–	–	–	–	–	–	–	–	–	–	Plant response rating, Smartweed ([4]; 16 g ai/ha): 0; Plant response rating, Smartweed ([4]; 31 g ai/ha): 0; Plant response rating, Smartweed ([4]; 62 g ai/ha): 20; Plant response rating, Smartweed ([4]; 250 g ai/ha): 40
O=C1NCCC1C(=O)N(c1ccc(F)c(F)c1)c1ccccc1F (stereo not shown) [Compound 5, N-(3,4-difluorophenyl)-N-(2-fluorophenyl)-2-oxo-3-pyrrolidinecarboxamide]	0	0	0	–	–	–	0	0	40	0	0	45	45	–
O=C1NCC(c2ccc(F)c(F)c2)C1C(=O)Nc1cccc(F)c1F (stereo not shown) [Compound 17, N-(2,3-difluorophenyl)-4-(3,4-difluorophenyl)-2-oxo-3-pyrrolidinecarboxamide]	0	0	0	0	0	0	0	0	0	0	20	35	40	Plant response rating, Deadnettle ([5]; 31 g ai/ha, scale 0 (no effect) to 100 (complete control)): 0; Plant response rating, Deadnettle ([5]; 62 g ai/ha, scale 0 to 100 (0 no effect, 100 complete control)): 0; Plant response rating, Deadnettle ([5]; 125 g ai/ha, scale 0 to 100 (0 no effect, 100 complete control)): 0; Plant response rating, Deadnettle ([5]; 250 g ai/ha, scale 0 to 100 (0 no effect, 100 complete control)): 0; Plant response rating, Bulrush, Hardstem ([2]; 1000 g ai/ha): 0; Plant response rating, Bulrush, Hardstem ([2]; 2000 g ai/ha): 40
